A word on the IC50: it is the concentration that inhibits the measured activity by half.

The values below come from BindingDB's records for PubMed 39011823 (University of Lille).

Some results are limits rather than exact numbers.

Assay [1] has as its target Leucyl-cystinyl aminopeptidase (Homo sapiens) (UniProt Q9UIQ6). Kind of assay: Inhibition of IRAP (unknown origin) using L-AMC as substrate.
Assay [2] has as its target Insulin-regulated aminopeptidase (Homo sapiens). Put plainly: Inhibition of human recombinant IRAP expressed in baculovirus infected Sf9 cells using L-AMC as substrate incubated for 5 to 10 mins by Michaelis-Menten analysis.
Assay [3] addresses Leucyl-cystinyl aminopeptidase (Homo sapiens) (UniProt Q9UIQ6). Put plainly: Inhibition of IRAP (unknown origin) using L-pNA as substrate.

Chain of Leucyl-cystinyl aminopeptidase (Homo sapiens) (Q9UIQ6 whole entry, looked up): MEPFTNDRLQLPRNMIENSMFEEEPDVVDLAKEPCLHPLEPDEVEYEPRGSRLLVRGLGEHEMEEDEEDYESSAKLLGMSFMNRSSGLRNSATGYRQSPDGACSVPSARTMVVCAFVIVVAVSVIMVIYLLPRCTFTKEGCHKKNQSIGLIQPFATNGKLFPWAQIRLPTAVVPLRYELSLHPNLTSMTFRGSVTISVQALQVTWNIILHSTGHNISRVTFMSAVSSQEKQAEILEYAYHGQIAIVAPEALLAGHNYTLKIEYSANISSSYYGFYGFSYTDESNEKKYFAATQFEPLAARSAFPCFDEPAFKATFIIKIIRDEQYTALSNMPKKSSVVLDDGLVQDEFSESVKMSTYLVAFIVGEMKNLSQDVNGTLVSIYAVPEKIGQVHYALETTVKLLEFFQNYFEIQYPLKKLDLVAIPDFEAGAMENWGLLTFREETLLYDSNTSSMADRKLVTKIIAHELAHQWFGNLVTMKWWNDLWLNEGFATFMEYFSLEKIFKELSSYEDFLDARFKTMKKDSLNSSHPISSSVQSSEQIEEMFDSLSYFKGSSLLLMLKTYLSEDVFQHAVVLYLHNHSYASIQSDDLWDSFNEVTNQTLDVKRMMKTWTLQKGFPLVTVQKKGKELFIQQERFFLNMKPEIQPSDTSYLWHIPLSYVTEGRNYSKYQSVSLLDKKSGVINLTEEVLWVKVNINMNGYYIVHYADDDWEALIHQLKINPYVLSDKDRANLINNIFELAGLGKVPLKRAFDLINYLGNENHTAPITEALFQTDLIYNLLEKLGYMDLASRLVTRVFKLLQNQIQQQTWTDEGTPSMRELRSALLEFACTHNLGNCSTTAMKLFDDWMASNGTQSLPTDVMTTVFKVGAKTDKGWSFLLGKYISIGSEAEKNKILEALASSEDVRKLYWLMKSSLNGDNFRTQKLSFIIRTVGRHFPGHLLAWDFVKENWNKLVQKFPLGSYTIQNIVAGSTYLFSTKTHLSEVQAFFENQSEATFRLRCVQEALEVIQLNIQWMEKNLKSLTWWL

The compound `CC(C)C[C@H](CP(=O)(O)[C@@H](N)CCc1ccccc1)C(N)=O` registered an IC50 in assay [1] of 218 nM.

For the compound `NC1CCc2c(Br)ccc(-c3ccccc3)c2CC1=O` (stereo not drawn), the IC50 in assay [2] was 120 nM.

For the compound `NC1CCc2c(Br)ccc(Br)c2CC1=O` (stereo not drawn), the IC50 in assay [2] was 34 nM.

Consider `COc1ccc(C(=O)O)cc1S(=O)(=O)N(C)c1cc(C(F)(F)F)ccc1N1CCCCC1`, for which, in assay [1], inhibition was half-maximal at 160000 nM (IC50).

On to `COc1ccc(C(=O)O)cc1S(=O)(=O)Nc1cc(C(F)(F)F)ccc1N1CCCCC1`, for which, in assay [1], the IC50 was > 200000 nM.

In turn, `CC(C)C[C@@H](CP(=O)(O)[C@@H](N)CCc1ccccc1)C(N)=O` yielded an IC50 in assay [1] of 344 nM.

`C#C[C@H](CP(=O)(O)[C@@H](N)CCc1ccccc1)C(=O)N[C@@H](Cc1ccccc1)C(N)=O` yielded a 50% inhibitory concentration (IC50) in assay [1] of 2 nM.

Turning to `COc1ccc(C(=O)O)cc1S(=O)(=O)N(C)c1cc(C(F)(F)F)ccc1N1CCN(C)CC1`, the IC50 in assay [1] was > 200000 nM.

`O=C(NO)[C@H](Cc1ccc(Oc2ccccc2)cc1)n1cc(CNS(=O)(=O)c2ccc(-c3ccccn3)s2)nn1` [US20240101542, Compound 23] gave an IC50 in assay [1] of 560 nM.

Turning to `COc1ccc(C[C@@H](C(=O)NO)n2cc(CNS(=O)(=O)c3ccc(-c4ccccc4)s3)nn2)cc1` [US20240101542, Compound 24], the IC50 in assay [1] amounted to 383 nM.

In turn, `COc1ccc(C[C@@H](C(=O)NO)n2cc(CNS(=O)(=O)c3ccc(-c4ccccn4)s3)nn2)cc1` [US20240101542, Compound 25] yielded a half-inhibitory concentration (IC50) in assay [1] of 186 nM.

In turn, `O=C(C[C@H](Cc1ccc(O)cc1)n1nncc1CNS(=O)(=O)c1ccc(-c2ccccn2)s1)NO` [US20240101542, Compound 33] yielded a 50% inhibitory concentration (IC50) in assay [1] of 84 nM.

As to `O=S(=O)(Nc1ccccc1)c1ccccc1` [phenyl(phenylsulfonyl)amine], in assay [3], the IC50 stood at 2100 nM.
